Laboratory results as given in patent US20240299345A1, “GINKGOLIDE B AND ITS DERIVATIVES FOR INHIBITING AND/OR REVERSING AGING” (CHINA MEDICAL UNIVERSITY, priority 2023, published 2024).

Key:
[1] = system: aged M1 macrophages, MPD C2C12, MPD C2C12-derived myotubes; experiment: Inflammatory cytokine expression in aged cells under culture conditions; assay type: cell-based, mouse; settings: GB 5 mg/L for 48 hr
Source text: C2C12 myoblast cell line (#CRL-1772TM, ATCC, Manassas, VA, USA) was expanded in high-glucose DMEM (#D7777, Sigma-Aldrich) with 10% FBS (#10270106, Gibco, Waltham, MA, USA) and 1% PSG (#10378016, Gibco). Passage 15-20 C2C12 was considered as multiple population doublings C2C12. Subconfluent C2C12 was differentiated to myotubes by myogenic induction medium, high-glucose DMEM (Sigma-Aldrich) containing 2% horse scrum (#16050122, Gibco) for 5 days. Aged bone-marrow monocytes were isolated from 20-month-old female C57BL/6 mice and then differentiated into macrophages in RPMI 1640 (#11875085, Gibco) supplemented with 10% FBS and 20 ng/ml M-CSF (#315-02, PeproTech, Cranbury, NJ, USA). Inflammatory MI macrophages were induced by 45 ng/mL IFN-γ (#485-MI-100, R&D Systems, Minneapolis, MN, USA) +100 ng/mL LPS (#L4391, Sigma-Aldrich). The indicative cells were then treated with or without GB (5 mg/L) for 48 hr. […]
(§1) RNAs were purified by using the TRIzol® (#15596018, Invitrogen) and chloroform method (#C7559, Sigma-Aldrich) and reversed transcribed using High-Capacity cDNA Reverse Transcription Kit (#4368814, Applied Biosystems, Foster City, CA, USA). The quantitative RT-PCR was conducted with universal probe system (Roche Life Science, Indianapolis, IN, USA) by using a QuantStudio™ 7 Flex Real-Time PCR System (Applied Biosystems) and was normalized by the expression of GAPDH.

[2] = system: 20-month-old aged female C57BL/6 mice; experiment: Physical functional analysis (grip strength, rotarod, hanging, balance beam) in aged mice; assay type: in vivo, mouse
Procedure: Forelimb grip strength was measured by a grip strength meter (Muromachi Kikai Co., Tokyo, Japan). Each mouse performed five trials for force measurement, and the values were normalized to body and recorded. A rotarod test was carried out by using the rotarod treadmill (Singa Technology Corporation, Taoyuan City, Taiwan). The speed was adjusted to 4 rpm for 4 sec, 10 rpm for 10 sec, 20 rpm for 20 sec, and then 40 rpm until the mice fell. Mice were familiarized with the rotarod and balance beam by running 5 min for three consecutive days before the onset of experimentation. During the experiment, each mouse performed four trials, and the average time that each rodent was able to stay on top of the rotarod treadmill was recorded. The balance beam test was used to assess subtle motor coordination and balance. After initial training, mice were given four consecutive trials where they were required to cross 60 cm of a round beam (14 mm in diameter). The time for crossing the beam and the number of hind-feet slip were recorded. Hanging endurance was determined by Kondziella's inverted hanging screen test. Mice were putted at the center of grasped wire screen (bar thickness, 2 mm; mesh, 10 mm). After inverting the wire screen, the time of sustained limb tension on the screen were recorded. A fixed maximum hanging limit of 600 seconds was used. Each trial was repeated three times at 30-min interval, the mean values were recorded.

[3] = system: kidney, heart, spleen and liver in aged mice; experiment: Organ pathology, blood chemistry and tolerability after 2 months of GB in mice
Procedure: All animals were purchased from Laboratory Animal Services Centre, the Chinese University of Hong Kong, ad libitum fed the standard diet (#5V0f, LabDiet, St. Louis, MO, USA), and housed at specific-pathogen-free and humidity-controlled conditions under a 12 light: 12 dark photoperiod with temperature at 20-22° C. Animals were kept up to five per cage and were randomly assigned to control and experimental groups in all experiments. […] For the short-term experiment, 3-(young), 6-(adult) and 20-month-old (aged) female C57BL/6 mice were administered 12 mg/kg body weight GB (#G6910, Sigma-Aldrich, St. Louis, MO, USA) or vehicle daily by oral gavage for two months. […] GB was diluted to the appropriate concentration in 100 μL of sterile PBS (#10378016, Gibco, Waltham, MA, USA).
Tissue samples were harvested and embedded in paraffin or in OCT (#4583, Sakura Finetek USA, Torrance, CA, USA). For paraffin-embedded samples, 10 μm sections were deparaffinized by xylene and alcohol gradient treatment and were then hydrated by distilled water and processed for heat-induced antigen retrieval with antigen retrieval solution at 70° C. for 1.5 hours before staining. For OCT-embedded samples, 10 μm sections were hydrated by distilled water before staining. Hematoxylin and cosin staining (#MHS16 and #HT110116 Sigma-Aldrich), oil red O staining (#00625, Sigma-Aldrich), and Masson's trichrome staining (#HT15, Sigma-Aldrich) were used to assess the histology, lipid droplet, and collagen deposition. For immunohistochemical staining, antigen-retrieval samples were blocked with 5% bovine serum albumin (BSA) (#A9647, Sigma-Aldrich) for 1 hour at room temperature and incubated with primary antibodies overnight at 4° C., followed by a ready-to-use IHC/ICC Kit (#K405, BioVision, Milpitas, CA, USA) at room temperature. The samples were then suspended with double-distilled water and then stained with hematoxylin. For immunocytochemical staining, samples were blocked with 5% BSA (Sigma-Aldrich) for 1 hour at room temperature and incubated with primary antibodies overnight at 4° C., then washed with PBS for ten minutes, and then incubated with secondary antibody for 1 hour at room temperature, then washed with PBS three times for ten minutes.

[4] = system: H2O2-induced senescent human MSCs; experiment: H2O2-induced senescence in human MSCs; assay type: cell-based; settings: GB 5 mg/L
Source text: C2C12 myoblast cell line (#CRL-1772TM, ATCC, Manassas, VA, USA) was expanded in high-glucose DMEM (#D7777, Sigma-Aldrich) with 10% FBS (#10270106, Gibco, Waltham, MA, USA) and 1% PSG (#10378016, Gibco). Passage 15-20 C2C12 was considered as multiple population doublings C2C12. Subconfluent C2C12 was differentiated to myotubes by myogenic induction medium, high-glucose DMEM (Sigma-Aldrich) containing 2% horse scrum (#16050122, Gibco) for 5 days. Aged bone-marrow monocytes were isolated from 20-month-old female C57BL/6 mice and then differentiated into macrophages in RPMI 1640 (#11875085, Gibco) supplemented with 10% FBS and 20 ng/ml M-CSF (#315-02, PeproTech, Cranbury, NJ, USA). Inflammatory MI macrophages were induced by 45 ng/mL IFN-γ (#485-MI-100, R&D Systems, Minneapolis, MN, USA) +100 ng/mL LPS (#L4391, Sigma-Aldrich). The indicative cells were then treated with or without GB (5 mg/L) for 48 hr. Commercial human mesenchymal stem cells (MSCs)40 were cultured in MSC maintenance medium consisting of IMDM, 10% FBS (#10270106, Gibco), 10 ng/ml bFGF (#233-FB, R&D Systems) and 1% PSG (#10378016, Gibco). To induce senescence, we treated cells at approximately 50% confluence with 200 μM H2O2 for 2 hr and then washed cells by PBS two times to remove H202. The cells were treated with GB (5 mg/L) or vehicle in fresh growth medium and subjected to the subsequent experiments at indicative time point.
Cell viability was measured by a CCK-8 kit (#ab228554, Abcam), and cell proliferation was determined by manually cell counting with hemocytometer. Senescence-associated β-galactosidase activity was determined by senescence-associated β-galactosidase staining kit (#9860, Cell Signaling Technology, Danvers, Massachusetts, USA) according to the manufacturer's instructions. Senescence-associated heterochromatin foci were visualized by DAPI staining.
as §1

[5] = system: skeletal muscle of aged C57BL/6 mice; experiment: Muscle histology (fiber type, oil red O, Masson's trichrome, central nuclei) and vascular network in aged mice; assay type: in vivo, mouse; settings: GB 2 months
Procedure: Body composition was measured by Minispec LF50 TD-NMR (Bruker, MA, USA) based on nuclear magnetic resonance methods. Briefly, mice were anesthetized for the duration of the procedure by 3% isoflurane (Zoctis, London, UK) and placed in the scanning chamber in the prone position, with the limbs and tail stretched away from the body. The analysis would be conducted by default software per manufacturer's protocol. The vascular networks […] were quantified by in vivo micro-computed tomography (U-CT, Milabs, Netherlands). Briefly, mice intravenously received 150 μL ExiTron™ nano 12000 (#130-095-698, Miltonic Biotec GmbH, Bergisch Gladbach, Germany), and then mice were anesthetized with isoflurane before being positioned on the scanning chamber. After scanning, the blood vessels were analyzed by a curved multiplanar reconstruction algorithm by using Osirix software (Bernex, Switzerland).

CC1C(=O)OC2C(O)C34C5CC(C(C)(C)C)C36C(OC(=O)C6O)OC4(C(=O)O5)C12O (centres unmarked) [GB, Ginkgolide B]
inflammatory cytokines in aged cells under culture conditions [1]: downregulated
grip strength ([2]; GB 12 mg/kg daily oral 2 months vs vehicle-aged, p<0.01): higher
duration of hanging ([2]; GB 2 months vs vehicle-aged, p<0.0001): prolonged duration
duration on the rotarod ([2]; GB 2 months vs vehicle-aged, p<0.05): prolonged duration
balance beam: latency to cross ([2]; GB 2 months, p<0.001): decreased
balance beam: number of foot slips ([2]; GB 2 months, p<0.001): reduced
collagen deposition in multiple organs ([3]; Masson's trichrome, aged mice): reduced
severe acute toxicity ([3]; adult, aged or OVX mice, none of the treated mice dying during the two months of GB administration): did not find severe acute toxicity
compensatory hypertrophy of the kidney and heart ([3]; aged mice, GB 2 months): decreased
aging-related compensatory hypertrophy of glomerulus ([3]; aged mice, histopathology, p<0.0001): reduced
aging-related compensatory hypertrophy of cardiomyocytes ([3]; aged mice, histopathology, p=0.0018): reduced
reduction of aging-related hepatic lipid accumulation ([3]; aged mice, p<0.0001): 3.8 fold
decrease in white pulp and white pulp/red pulp ratio in aged spleen ([3]; aged mice, p<0.0001 and p=0.0143): ameliorated
number of hepatic microgranulomas ([3]; aged mice, p=0.0031): decreased
cellular morphology [4]: restored the spindle sharp from flattened and enlarged morphology
expression of senescence markers [4]: reduced
proliferation [4]: promoted
senescence-associated heterochromatin foci and nucleus size [4]: reduced
senescence-associated β-galactosidase (SA-β-Gal) staining ([4]; p=0.0007): reduced
cellular viability (CCK8) ([4]; p=0.0026): promoted
capillary density ([5]; CD31 staining of quadriceps, p=0.0492): dramatically enlarges
aging-related changes in fiber-type switching ([5]; GA muscle, in particular type 1 and 2B myofibers): partially reversed
number of central myonuclei in aged myofibers ([5]; p=0.0011): reduced
collagen deposition in muscle ([5]; Masson's trichrome, GA muscle, p=0.0004): reduced
deep femoral artery ([5]; micro-CT, p=0.012): dramatically enlarges
intramuscular lipid infiltration ([5]; oil red O, GA muscle, p=0.01): reduced
